For seven compounds, Ki results are on record in patent publication US20050107616A1, “Alpha-ketoamide derivatives as cathepsin k inhibitors” (priority 2001, published 2005).

Read-outs that look alike come from different tables or passages of the source.

The target in one assay is T1, human cathepsin K (Homo sapiens, UniProt P43235).
T1 construct: The proform of cathepsin K was converted to mature cathepsin K by brief exposure to pH 4; made in house; host or cells: baculovirus; Trichoplusia ni High Five cells (virus raised in Sf-9)
T1 sequence (P43235 115-329): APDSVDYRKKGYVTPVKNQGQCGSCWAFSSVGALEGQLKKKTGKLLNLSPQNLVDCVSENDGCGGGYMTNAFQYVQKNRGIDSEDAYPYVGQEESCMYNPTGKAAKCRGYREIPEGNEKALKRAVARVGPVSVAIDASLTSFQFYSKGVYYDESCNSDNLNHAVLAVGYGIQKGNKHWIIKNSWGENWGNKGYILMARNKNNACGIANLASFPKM
The assay is described as follows: Cathepsin K inhibition assay, fluorogenic substrate Cbz-Phe-Arg-AMC, progress curve method. It counts as biochemical. The settings on record: human recombinant enzyme, pH 5.5, 30° C., 10 μM substrate, read-out: hCat K Ki. The gist of the method:
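Recombinant human cathepsin K from insect cells, made mature by pH 4/L-cysteine activation, was assayed with 10 μM Cbz-Phe-Arg-AMC in 10% DMSO at 30° C. […]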

Another assay deals with human cathepsin V (Homo sapiens, UniProt O60911). Put plainly: Cathepsin V inhibition assay, fluorogenic substrate Cbz-Phe-Arg-AMC. It counts as biochemical. The settings on record: Table 2; human recombinant enzyme, pH 5.5, 30° C., 2 μM substrate; read-out: hCat V Ki. As to the method: All assays for cathepsin K were carried out with human and rat recombinant enzyme. Assays for cathepsins S Et V were also carried out with human recombinant enzyme. Assays for human cathepsins B. H. and L were carried out with enzyme, purchased from Athens Research and Technology, Inc., prepared from human liver tissue. Standard assay conditions for the determination of kinetic constants used a fluorogenic peptide substrate, typically (5S,8S)-13-amino-5-benzyl-13-imino-3-methylene-N-(4methyl-2-oxo-2H-chromen-7-yl)-6-oxo-1-phenyl-2-oxa-4,7,12-triazatridecane-8-carboxamide (Cbz-Phe-Arg-AMC), and were determined in 100 mM sodium acetate at pH 5.5 containing 10 mM dithiothreitol and 120 mM sodium chloride. A stock substrate solution of Cbz-Phe-Arg-AMC was prepared at a concentration of 50 mM in dimethyl sulfoxide. This substrate was diluted into the assay for a final substrate concentration of 10 μM in the rat cathepsin K, human cathepsin K, and human cathepsin B assays; a final substrate concentration of 5 μM in the human cathepsin L assay; and a final substrate concentration of 2 μM in the human cathepsin V assay.
All assays contained 10% dimethyl sulfoxide. […] All assays were conducted at 30° C. Product fluorescence (excitation at 360 nm; emission at 440 nm, (except cathepsin H which used excitation at 340 nm; emission at 420 nm)) was monitored with a PerSeptive Biosystems Cytofluor II fluorescence plate reader. Product progress curves were generated over 2.3 h monitoring the formation of 7-amino-4-methylcoumarin product (or β-naphthalamide for cathepsin H).
Potential inhibitors were evaluated using the progress curve method. Assays were carried out in the presence of variable concentrations of test compound. Reactions were initiated by addition of buffered solutions of inhibitor and substrate to enzyme. Data analysis was conducted according to one of two procedures depending on the appearance of the progress curves in the presence of inhibitors. For those compounds whose progress curves were linear, the enzymatic activity (RATE) was plotted against the concentration of test compound, including inhibitor concentration of zero ([I]=0), and the IC50 determined from a fit of equation 1 to the data, RATE=Vmax/(1+([I]/IC50)) (1) where Vmax is the best fit estimate of the maximal enzymatic activity. Ki values were calculated from IC50 values using equation 2 assuming a competitive model. [formula]

human cathepsin V, sequence (O60911 114-334): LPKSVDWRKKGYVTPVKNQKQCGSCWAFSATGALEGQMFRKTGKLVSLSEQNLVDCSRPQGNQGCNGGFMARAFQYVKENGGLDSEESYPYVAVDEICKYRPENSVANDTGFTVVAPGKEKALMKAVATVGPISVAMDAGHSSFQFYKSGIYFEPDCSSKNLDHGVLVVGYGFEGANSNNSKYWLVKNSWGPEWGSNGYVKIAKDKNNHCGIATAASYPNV

On to `CCCC[C@H](NC(=O)O[C@H](Cc1nnc(-c2ccc(F)cc2)o1)C(C)(C)C)C(=O)C(=O)Nc1ccnn1C` (stereo in doubt) [Example 22, (1R)-1-{[5-(4-fluorophenyl)-1,3,4-oxadiazol-2-yl]methyl}-2,2-dimethylpropyl(1S)-1-[[(1-methyl-1H-pyrazol-5-yl)amino](oxo)acetyl]pentyl carbamate], for which the Ki was 1 to 100 nM at human cathepsin K (Table 1), 1 to 100 nM on human cathepsin K (Table 2) and 100 to 10000 nM at human cathepsin V.
Regarding `CCCC[C@H](NC(=O)O[C@H](Cn1cnc(-c2ccc(C(F)(F)F)cc2)c1)C(C)(C)C)C(=O)C(=O)Nc1ccnn1C1CCC1` [Example 35, (1S)-2,2-dimethyl-1-({4-[4-(trifluoromethyl)phenyl]-1H-imidazol-1-yl}methyl)propyl(1S)-1-[[(1-cyclobutyl-1H-pyrazol-5-yl)amino](oxo)acetyl]pentylcarbamate], the Ki at human cathepsin K (Table 1), at human cathepsin K (Table 2) and at human cathepsin V was 1 to 100 nM each time.
On to `CCCC[C@H](NC(=O)O[C@H](c1nnc(-c2ccc(C(F)(F)F)cc2)o1)C(C)(C)C)C(=O)C(=O)Nc1ccn[nH]1` [Example 38, (1S)-2,2-dimethyl-1-{5-[4-(trifluoromethyl)phenyl]-1,3,4-oxadiazol-2-yl}propyl(1S)-1-[oxo(1H-pyrazol-5-ylamino)acetyl]pentylcarbamate], for which the Ki at human cathepsin K (Table 1) fell in the range of 0.01 to 1 nM; on human cathepsin K (Table 2), 0.01 to 1 nM; on human cathepsin V it was 1 to 100 nM.
With `CCCC[C@H](NC(=O)O[C@H](Cn1cnc(-c2ccc(C(F)(F)F)cc2)c1)C(C)(C)C)C(=O)C(=O)Nc1ccn[nH]1` [Example 7, (1S)-2,2-dimethyl-1-({4-[4-(trifluoromethyl)phenyl]-1H-imidazol-1-yl}methyl)propyl(1S)-1-[oxo(1H-pyrazol-5-ylamino)acetyl]pentylcarbamate], the Ki on human cathepsin K (Table 1), at human cathepsin K (Table 2) and at human cathepsin V was 0.01 to 1 nM each time.
Turning to `CCCC[C@H](NC(=O)O[C@H](Cn1cnc2cc(Cl)c(Cl)cc21)C(C)(C)C)C(=O)C(=O)Nc1ccn[nH]1` [Example 37, (1S)-1-[(5,6-dichloro-1H-benzimidazol-1-yl)methyl]-2,2-dimethylpropyl(1S)-1-[oxo(1H-pyrazol-5-ylamino)acetyl]pentylcarbamate], the Ki at human cathepsin K (Table 1), on human cathepsin K (Table 2) and on human cathepsin V was 0.01 to 1 nM each time.
On to `CCCC[C@H](NC(=O)O[C@H](Cn1ccc(-c2ccc(C(F)(F)F)cc2)n1)C(C)(C)C)C(=O)C(=O)Nc1ccn[nH]1` [Example 1], for which the Ki on human cathepsin K (Table 1), at human cathepsin K (Table 2) and on human cathepsin V was 0.01 to 1 nM in each case.
As for `CCCC[C@H](NC(=O)O[C@H](c1nnc(-c2ccc(C(F)(F)F)cc2)o1)C(C)(C)C)C(=O)C(=O)NN1CCOC1=O` [Example 39, (1S)-2,2-dimethyl-1-{5-[4-(trifluoromethyl)phenyl]-1,3,4-oxadiazol-2-yl}propyl(1S)-1-{oxo[(2-oxo-1,3-oxazolidin-3-yl)amino]acetyl}pentylcarbamate], the inhibition constant (Ki) lay in the range of 0.01 to 1 nM at human cathepsin K (Table 1), 0.01 to 1 nM on human cathepsin K (Table 2) and 1 to 100 nM on human cathepsin V.
